According to ChEMBL document CHEMBL4130392, “Eugenol derived immunomodulatory molecules against visceral leishmaniasis” (Eur J Med Chem, 2017):
Calls of active or inactive are those of the source. No cut-off for these calls is given here.

Legend:
[1] = tested on: Leishmania donovani; assay: Antileishmanial activity against Leishmania donovani MHOM/IN/AG/83 amastigotes infected in BALB/c mouse peritoneal macrophages after 42 hrs by Giemsa staining-based microscopic analysis; type: functional, organism-based; conditions: MHOM/IN/AG/83, 42 h
[2] = tested on: RAW264.7; assay: Cytotoxicity against mouse RAW264.7 cells after 48 hrs by MTT assay; type: cell-based; conditions: RAW264.7, 48 h
[3] = tested on: Peritoneal macrophage; assay: Induction of NO generation in Leishmania donovani MHOM/IN/AG/83 infected BALB/c mouse peritoneal macrophages assessed as nitrite levels after 48 hrs by Griess assay relative to untreated control; type: functional
[4] = Therapeutic index, ratio of IC50 for mouse RAW264.7 cells to IC50 for Leishmania donovani MHOM/IN/AG/83 promastigotes; type: toxicity; conditions: read-out: Ratio IC50
[5] = Therapeutic index, ratio of EC50 for BALB/c mouse peritoneal macrophages to EC50 for Leishmania donovani MHOM/IN/AG/83 amastigotes; type: toxicity; conditions: read-out: Ratio EC50
[6] = tested on: Peritoneal macrophage; assay: Cytotoxicity against BALB/c mouse peritoneal macrophages after 48 hrs by MTT assay; type: cell-based
[7] = tested on: Leishmania donovani; assay: Antileishmanial activity against Leishmania donovani MHOM/IN/AG/83 promastigotes after 48 hrs by MTT assay; type: functional, organism-based; conditions: MHOM/IN/AG/83, 48 h
[8] = Drug uptake in mouse RAW264.7 cells assessed as ratio of drug level (cell lysate)/(drug level (supernatant) + drug level (cell lysate) at 10 ug/ml incubated for 3 hrs by HPLC method; type: ADME, cell-based; conditions: raw264.7, 3 h
[9] = Drug uptake in mouse RAW264.7 cells assessed as retention time at 10 ug/ml incubated for 3 hrs by HPLC method; type: ADME, cell-based; conditions: raw264.7, 3 h
[10] = species on record: Mus musculus; assay: Induction of innate immune response in splenocytes derived from compound treated BALB/c mouse infected with Leishmania donovani MHOM/IN/AG/83 assessed as increase in iNOS2 mRNA expression by RT-PCR analysis; type: functional
[11] = species on record: Mus musculus; assay: Induction of innate immune response in splenocytes derived from compound treated BALB/c mouse infected with Leishmania donovani MHOM/IN/AG/83 assessed as downregulation of IL-10 protein expression by sandwich ELISA; type: functional, organism-based
[12] = tested on: Peritoneal macrophage; assay: Induction of innate immune response in Leishmania donovani MHOM/IN/AG/83 infected BALB/c mouse peritoneal macrophages assessed as increase in iNOS2 mRNA expression at 2.5 ug/ml incubated for 6 hrs by RT-PCR analysis relative to control; type: functional
[13] = tested on: Leishmania donovani; assay: (§1) Antileishmanial activity against Leishmania donovani MHOM/IN/AG/83 promastigotes infected in BALB/c mouse assessed as reduction of parasite burden in spleen at 10 mg/kg, iv administered starting 2 weeks of post infection with five days interval between each treatment and measured after 28 days of treatment by Giemsa staining-based assay; type: functional; design: scale not given: the % may be the effect or the level left
[14] = tested on: Leishmania donovani; assay: as §1, with “liver” for “spleen”; type: functional; design: scale not given: the % may be the effect or the level left
[15] = tested on: Peritoneal macrophage; assay: Induction of NO generation in Leishmania donovani MHOM/IN/AG/83 infected BALB/c mouse peritoneal macrophages assessed as increase in nitrite levels at 1 ug/ml after 48 hrs by Griess assay relative to untreated control; type: functional
[16] = tested on: Peritoneal macrophage; assay: Induction of NO generation in Leishmania donovani MHOM/IN/AG/83 infected BALB/c mouse peritoneal macrophages assessed as increase in nitrite levels at 5 ug/ml after 48 hrs by Griess assay relative to untreated control; type: functional
[17] = tested on: Peritoneal macrophage; assay: Induction of NO generation in Leishmania donovani MHOM/IN/AG/83 infected BALB/c mouse peritoneal macrophages assessed as increase in nitrite levels at 2.5 ug/ml after 48 hrs by Griess assay relative to untreated control; type: functional
[18] = species on record: Mus musculus; assay: Induction of innate immune response in splenocytes derived from compound treated BALB/c mouse infected with Leishmania donovani MHOM/IN/AG/83 assessed as downregulation of IL-10 mRNA expression by RT-PCR analysis; type: functional, organism-based
[19] = species on record: Mus musculus; assay: Induction of innate immune response in splenocytes derived from compound treated BALB/c mouse infected with Leishmania donovani MHOM/IN/AG/83 assessed as reduction in arginase-1 expression by RT-PCR analysis relative to untreated control; type: functional
[20] = tested on: Peritoneal macrophage; assay: Induction of innate immune response in Leishmania donovani MHOM/IN/AG/83 infected BALB/c mouse peritoneal macrophages assessed as upregulation of IL-12 levels at 2.5 ug/ml after 24 hrs by sandwich ELISA; type: functional
[21] = species on record: Mus musculus; assay: Induction of innate immune response in splenocytes derived from compound treated BALB/c mouse infected with Leishmania donovani MHOM/IN/AG/83 by Griess assay; type: functional
[22] = Ratio of therapeutic index of test compound to Amphotericin B by measuring ratio of IC50 for BALB/c mouse peritoneal macrophages to IC50 for Leishmania donovani MHOM/IN/AG/83 amastigotes; type: toxicity
[23] = species on record: Mus musculus; assay: Induction of innate immune response in splenocytes derived from compound treated BALB/c mouse infected with Leishmania donovani MHOM/IN/AG/83 assessed as reduction in arginase-1 activity using L-arginine by spectrometry relative to control; type: functional
[24] = species on record: Mus musculus; assay: Induction of innate immune response in splenocytes derived from compound treated BALB/c mouse infected with Leishmania donovani MHOM/IN/AG/83 assessed as upregulation of IFNgamma mRNA expression levels by RT-PCR analysis; type: functional, organism-based
[25] = species on record: Mus musculus; assay: Induction of innate immune response in splenocytes derived from compound treated BALB/c mouse infected with Leishmania donovani MHOM/IN/AG/83 assessed as upregulation of IL-12 mRNA expression by RT-PCR analysis; type: functional, organism-based
[26] = tested on: Peritoneal macrophage; assay: Induction of innate immune response in Leishmania donovani MHOM/IN/AG/83 infected BALB/c mouse peritoneal macrophages assessed as reduction in arginase 1 activity at 1 to 5 ug/ml incubated for 48 hrs using L-arginine and by spectrometry relative to control; type: functional
[27] = species on record: Mus musculus; assay: Induction of innate immune response in splenocytes derived from compound treated BALB/c mouse infected with Leishmania donovani MHOM/IN/AG/83 assessed as upregulation of IFNgamma protein expression levels by sandwich ELISA; type: functional, organism-based
[28] = tested on: Leishmania donovani; assay: as §1, with “liver” for “spleen”, “25” for “10”; type: functional; design: scale not given: the % may be the effect or the level left
[29] = tested on: Peritoneal macrophage; assay: Induction of innate immune response in Leishmania donovani MHOM/IN/AG/83 infected BALB/c mouse peritoneal macrophage assessed as downregulation of IL-10 levels at 2.5 ug/ml after 24 hrs by sandwich ELISA; type: functional
[30] = tested on: Leishmania donovani; assay: as §1, with “25” for “10”; type: functional; design: scale not given: the % may be the effect or the level left
[31] = Binding affinity to plasma membrane of mouse RAW264.7 cells at 10 uM using compound with fluorophoric moiety attached via carbamate linkage by fluorescence microscopy; type: ADME, cell-based; conditions: raw264.7, 10 µM
[32] = species on record: Mus musculus; assay: Induction of innate immune response in splenocytes derived from compound treated BALB/c mouse infected with Leishmania donovani MHOM/IN/AG/83 assessed as upregulation of IL-12 protein expression by sandwich ELISA; type: functional, organism-based
[33] = tested on: Peritoneal macrophage; assay: Induction of innate immune response in Leishmania donovani MHOM/IN/AG/83 infected BALB/c mouse peritoneal macrophages assessed as downregulation of IL-10 mRNA expression at 2.5 ug/ml after 6 hrs by RT-PCR analysis; type: functional, cell-based
[34] = tested on: Peritoneal macrophage; assay: Induction of innate immune response in Leishmania donovani MHOM/IN/AG/83 infected BALB/c mouse peritoneal macrophages assessed as upregulation of IL-12 mRNA expression at 2.5 ug/ml after 6 hrs by RT-PCR analysis; type: functional, cell-based
[35] = Ratio of therapeutic index of test compound to Miltefosine by measuring ratio of IC50 for BALB/c mouse peritoneal macrophages to IC50 for Leishmania donovani MHOM/IN/AG/83 amastigotes; type: toxicity

## C=CCc1ccc(OC(=O)COc2ccccc2)c(OC)c1
[1]
  EC50: 7.17 µM
[2]
  IC50: 396 µM
[3]
  Activity: Dose-dependent effect
[3]; record 2
  Activity: 39.02 µM
[4]
  selectivity ratio: 13.7
[5]
  selectivity ratio: 55.1
[6]
  EC50: 391 µM
[7]
  IC50: 28.9 µM
[8]
  Ratio: 0.73
[9]
  Retention_time: 3.867 min

## C=CCc1ccc(OC(=O)CCCCCCCCCCCCCCCCC)c(OC)c1
[10]
  fold change (FC): 8
[1]
  EC50: 4.25 µM
[11]
  Activity: Active
[12]
  fold change (FC): 8
[13]
  Activity: 72%
[2]
  IC50: 305 µM
[14]
  Activity: 81%
[15]
  fold change (FC): 3
[3]
  Activity: Dose-dependent effect
[3]; record 2
  Activity: 38.83 µM
[4]
  selectivity ratio: 15.2
[5]
  selectivity ratio: 82.2
[16]
  fold change (FC): 8
[6]
  EC50: 346 µM
[17]
  fold change (FC): 7
[18]
  Activity: Active
[19]
  fold change (FC): 4
[20]
  fold change (FC): 5
[21]
  fold change (FC): 8
[22]
  Ratio: 10 to 13
[23]
  fold change (FC): 4
[24]
  Activity: Active
[25]
  Activity: Active
[26]
  fold change (FC): 4
[7]
  IC50: 20.1 µM
[8]
  Ratio: 0.62
[27]
  Activity: Active
[28]
  Activity: 92%
[29]
  fold change (FC): 3
[9]
  Retention_time: 3.173 min
[30]
  Activity: 87%
[31]
  Activity: Active
[32]
  Activity: Active
[33]
  Activity: Active
[34]
  Activity: Active
[35]
  Ratio: 10 to 13

## C=CCc1ccc(O)c(OC)c1 [EUGENOL]
[1]
  EC50: 173 µM
[2]
  IC50: 527 µM
[3]
  Activity: Dose-dependent effect
[3]; record 2
  Activity: 7.45 µM
[4]
  selectivity ratio: 1.19
[5]
  selectivity ratio: 2.75
[6]
  EC50: 476 µM
[7]
  IC50: 442 µM
[8]
  Ratio: 0.21
[9]
  Retention_time: 3.133 min

## C=CCc1ccc(OCCC)c(OC)c1 [PROPYLEUGENOL]
[1]
  EC50: 156 µM
[2]
  IC50: 110 µM
[3]
  Activity: Dose-dependent effect
[3]; record 2
  Activity: 10.64 µM
[4]
  selectivity ratio: 0.83
[5]
  selectivity ratio: 0.71
[6]
  EC50: 111 µM
[7]
  IC50: 133 µM

## CCCCCCCCCCCCCCCCOP(=O)([O-])OCC[N+](C)(C)C [MILTEFOSINE]
[1]
  EC50: 6.4 µM
[2]
  IC50: 44.8 µM
[3]
  Activity: Dose-dependent effect
[3]; record 2
  Activity: 26.01 µM
[4]
  selectivity ratio: 4.3
[5]
  selectivity ratio: 6.34
[6]
  EC50: 40.7 µM
[7]
  IC50: 10.4 µM

## C=CCc1ccc(OC(=O)CCCCC)c(OC)c1
[1]
  EC50: 101 µM
[2]
  IC50: 517 µM
[3]
  Activity: Dose-dependent effect
[3]; record 2
  Activity: 18.29 µM
[4]
  selectivity ratio: 3.21
[5]
  selectivity ratio: 4.76
[6]
  EC50: 477 µM
[7]
  IC50: 162 µM

## C=CCc1ccc(OC(=O)CCCCCC)c(OC)c1
[1]
  EC50: 59.6 µM
[2]
  IC50: 512 µM
[3]
  Activity: Dose-dependent effect
[3]; record 2
  Activity: 25.84 µM
[4]
  selectivity ratio: 4.95
[5]
  selectivity ratio: 8.3
[6]
  EC50: 491 µM
[7]
  IC50: 103 µM
